In article PMC10531759, “Key Amino Acid Residues Involved in Binding Interactions between Bactrocera minax Odorant-Binding Protein 3 (BminOBP3) and Undecanol” (Insects, 2023):
Changes are numbered by the printed parent chain. Entries after “also recorded” stand apart in the source; their conditions may differ.

Legend:
[1] = target: T1, 3D2a (mutant that lacks F121 and P122 from the C-terminus of BminOBP3) (Bactrocera minax, UniProt A0A3G2LEF2); assay: Fluorescence competitive binding assay (1-NPN displacement by undecanol), 3D2a mutant; conditions: undecanol up to 36 μM
T1 sequence (A0A3G2LEF2 27-113): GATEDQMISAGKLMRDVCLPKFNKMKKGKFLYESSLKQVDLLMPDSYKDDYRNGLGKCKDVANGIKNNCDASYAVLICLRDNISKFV
Protocol: (§1) In order to explore the binding affinities of BminOBP3 and its mutants to undecanol, the binding assays were conducted on a fluorescence spectrophotometer (F-7000; Hitachi, Japan) with parameters set same as the previous study. The fluorescent probe 1-NPN and undecanol were diluted in the HPLC methanol to 1 mM, whereas the protein samples were dissolved in 20 mM Tris-HCL pH 7.4 to obtain 2 μM protein solutions.
(§2) To measure the dissociation constant (Kd) of 1-NPN to BminOBP3 and mutants, aliquots of 1 mM 1-NPN were added to the 2 μM protein solution with a final concentration of 1-NPN ranging from 0 to 22 μM, and the resulting fluorescence intensity values of the maximum fluorescence emission were recorded for the construction of binding curves and Scatchard plots. Bound 1-NPN was determined by fluorescence intensities with the assumption that the protein was 100% active, and it binds the ligands at a 1:1 stoichiometric ratio when saturated. […] The maximal fluorescence intensity values were plotted against undecanol concentrations. The inhibition constant (Ki) of each protein was calculated based on the following equation: Ki = [IC50]/(1 + [1-NPN]/K1-NPN). IC50 is the concentration of ligand halving initial fluorescence intensity; [1-NPN] is the free concentration of 1-NPN; and K1-NPN is the dissociation constant of the protein/1-NPN complex. […]

[2] = system: Y84A (BminOBP3-Y84A mutant); assay: Fluorescence binding assay with undecanol, Y84A mutant; set-up: species or system Bactrocera minax; conditions: Figure S7 and Table S2
Protocol: as §1
as §2, with “[1-NPN]/K1-NPN).” for “[1-NPN]/K1-NPN). IC50 is the concentration of ligand halving initial fluorescence intensity; [1-NPN] is the free concentration of 1-NPN; and K1-NPN is the dissociation constant of the protein/1-NPN complex.”
(§3) (the information regarding 13 ligands see Supplemental Data Table S4). […] Conformation 3 was an effective conformation, which is shown in Figure 2A, as it was validated by subsequent mutagenesis studies and fluorescence binding assays. […]

[3] = target: T2, T-OBP3 (mutant that lacks I116-P122 from the C-terminus of BminOBP3) (Bactrocera minax, UniProt A0A3G2LEF2); assay: Fluorescence competitive binding assay (1-NPN displacement by undecanol), C-terminus truncated mutant; conditions: compared with wild-type protein
T2 sequence (A0A3G2LEF2 27-108): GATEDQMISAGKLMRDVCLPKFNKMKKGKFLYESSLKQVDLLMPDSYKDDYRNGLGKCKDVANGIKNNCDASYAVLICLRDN
Protocol: as §1, §2

[4] = system: T57A (BminOBP3-T57A mutant); assay: Fluorescence binding assay with undecanol, T57A mutant; set-up: species or system Bactrocera minax; conditions: Figure S7 and Table S2
Protocol: as §1
as §2, with “[1-NPN]/K1-NPN).” for “[1-NPN]/K1-NPN). IC50 is the concentration of ligand halving initial fluorescence intensity; [1-NPN] is the free concentration of 1-NPN; and K1-NPN is the dissociation constant of the protein/1-NPN complex.”
as §3

[5] = target: T3, BminOBP3 (wild-type protein) (Bactrocera minax, UniProt A0A3G2LEF2); set-up: method as in PMID 34668560; conditions: competitive fluorescence binding experiments of previous study; cited from earlier work
T3 sequence (A0A3G2LEF2 27-115): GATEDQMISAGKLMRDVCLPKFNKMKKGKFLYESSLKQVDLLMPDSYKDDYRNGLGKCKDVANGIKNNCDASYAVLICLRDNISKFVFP

[6] = target: T4, V120A (BminOBP3-V120A mutant) (Bactrocera minax, UniProt A0A3G2LEF2, V113A); assay: Fluorescence competitive binding assay (1-NPN displacement by undecanol), V120A mutant; conditions: undecanol up to 36 μM
T4 sequence (A0A3G2LEF2 27-115 V113A): T3 sequence (A0A3G2LEF2 27-115) with V87A
Protocol: as §1, §2

[7] = target: T3, BminOBP3 (wild-type protein); assay: Fluorescence competitive binding assay (1-NPN displacement by undecanol), wild-type protein; conditions: pH 5.0 compared with pH 7.4; Figure S8 and Table S3
Protocol: as §1, §2

With `CCCCCCCCCCCO` [undecanol, 1-undecanol] the “binding to undecanol (in words)” value [1] was “completely abolished; also recorded: completely lost their binding capacity”, the “affinity to undecanol compared with the wild-type protein (in words)” value [2] was “obvious increase” and the “affinity for undecanol compared with BminOBP3 (in words)” value [3] was “significant decrease”. For the same compound, the “affinity to undecanol compared with the wild-type protein (in words)” value [4] was “obvious increase”, the “binding affinity of BminOBP3 among 13 ligands tested (in words)” value [5] was “strong binding affinity” and the “binding to undecanol (in words)” value [6] was “completely abolished; also recorded: completely lost their binding capacity”. For the same compound, the “affinity between BminOBP3 and undecanol at acidic pH (in words)” value [7] was “significant decrease”.
